{"source": "paper PMC12449377", "about": "“Psychedelic-like effects induced by 2,5-dimethoxy-4-iodoamphetamine, lysergic acid diethylamide, and psilocybin in male and female C57BL/6J mice” (Psychopharmacology, 2025)", "type_in_all_cases": "in vivo, mouse", "key": {"C57BL/6J mice [1]": {"test_system": "C57BL/6J mice", "assay": "Body temperature change in mice", "conditions": "for Body Temp Δ (°C) Mean: post 30 min session", "method": "All mice were injected s.c. with temperature transponders (14 × 2 mm, model IPTT-300, Avidity Science, Waterford Wisconsin, USA) under brief isoflurane immobilization, and were given at least 1 week to recover (Glatfelter et al. [2022b]). Mice were single housed post-implant, and for the duration of the experiments, to protect their devices from being removed by cage mates. Temperature was measured noninvasively using a handheld reader which is sensitive to the transponder signals.\n(§1) At 1–2 weeks prior to the beginning of experiments, mice were habituated to handling and receiving s.c. saline injections. On the day of an experiment, mice were acclimated to the testing room in their home cage for at least 30 min prior to the start of sessions. Prior to each session, mice were weighed, and resting body temperatures were recorded. Mice were then placed into experimental chambers for acclimation. Behavioral testing was carried out in TruScan mouse locomotor arenas equipped with photobeam arrays (Coulbourn Instruments, Holliston, MA, USA) that were modified with cylindrical inserts and transparent flooring to aid in semi-automated HTR detection as previously described (Glatfelter et al. [2022a]). After 5 min of acclimation, basal body temperature was recorded followed by s.c. injection of drug or vehicle, and mice were returned to test chambers for 30 min. Dose ranges for each drug were 0.03–10 mg/kg for DOI, 0.03–10 mg/kg for psilocybin, and 0.003–1 mg/kg for LSD. Mice were randomly assigned to specific doses at the beginning of the experiment and received different doses at each session.\n(§2) During each session, locomotor activity was quantified via photobeam tracking of distance traveled in cm. Overhead GoPro Hero Black 7 video recordings (120 fps, 960p resolution) were analyzed using a commercially available software package from Clever Sys Inc. (Reston, VA, USA) for the measurement of HTR activity. Mouse body temperature was also collected post-session to calculate temperature change values (basal - post session temperature reading).\n(§3) Concentration-response data were fit to a single site non-linear regression model. For the HTR studies, potencies were determined from the ascending limb of the dose-response curves using ED50 potency values from [agonist] vs. response (variable slope, four parameter) least squares fit non-linear regression analyses, whereas efficacy was defined by the top output parameter or Emax from the aforementioned analyses. […] Best-fit values for ED50 and Emax from non-linear regression analyses were compared by extra sum-of-squares F tests. Mean effects for each behavioral endpoint were compared using two-way ANOVA (dose x sex), followed by Sidak’s multiple comparisons post-hoc test. Mean effects for pooled mouse behavioral data were compared via Welch’s ANOVA with Dunnett’s T3 post-hoc test, comparing all doses to saline vehicle controls (0 mg/kg). Alpha was set to 0.05 for all analyses."}, "C57BL/6J mice [2]": {"test_system": "C57BL/6J mice", "assay": "Head twitch response (HTR) in mice", "conditions": "for HTR (total events) Mean: 30 min; for ED50: Mus musculus, sc", "method": "Each drug was tested using groups of 12 mice per sex (i.e., 24 total mice per drug). Experimental sessions were conducted once every 1–2 weeks for 2 months per drug. Experimental sessions were spaced apart by at least 1 week to minimize the potential for tolerance to drug effects (Canal and Morgan [2012]; Darmani et al. [1990a]; de la Fuente Revenga et al. [2022]). Experiments were conducted during the light phase (1300–1700 local time; lights on = 0700 in a 12/12 light/dark cycle).\nas §1, §2, §3"}, "C57BL/6J mice [3]": {"test_system": "C57BL/6J mice", "assay": "Locomotor activity (distance traveled) in mice", "conditions": "for Locomotor Activity (cm) Mean: 30 min", "method": "as §1, §2, §3"}}, "note": "Read-outs that look alike come from different tables or passages of the source.", "data": [{"smiles": "COc1cc(CC(C)N)c(OC)cc1I", "note": "(stereo not shown) [DOI, 2,5-dimethoxy-4-iodoamphetamine]", "values": [{"measurement": "Body Temp Δ (°C) Mean", "setting": "C57BL/6J mice [1]; 0.03 mg/kg s.c., female mice", "result": 0.0, "unit": "°C"}, {"measurement": "Body Temp Δ (°C) Mean", "setting": "C57BL/6J mice [1]; 0.03 mg/kg s.c., male mice", "result": 0.2, "unit": "°C"}, {"measurement": "Body Temp Δ (°C) Mean", "setting": "C57BL/6J mice [1]; 0.03 mg/kg s.c., pooled sexes", "result": 0.1, "unit": "°C"}, {"measurement": "Body Temp Δ (°C) Mean", "setting": "C57BL/6J mice [1]; 0.1 mg/kg s.c., female mice", "result": 0.2, "unit": "°C"}, {"measurement": "Body Temp Δ (°C) Mean", "setting": "C57BL/6J mice [1]; 0.1 mg/kg s.c., male mice", "result": 0.3, "unit": "°C"}, {"measurement": "Body Temp Δ (°C) Mean", "setting": "C57BL/6J mice [1]; 0.1 mg/kg s.c., pooled sexes", "result": -0.1, "unit": "°C"}, {"measurement": "Body Temp Δ (°C) Mean", "setting": "C57BL/6J mice [1]; 0.3 mg/kg s.c., female mice", "result": 0.2, "unit": "°C"}, {"measurement": "Body Temp Δ (°C) Mean", "setting": "C57BL/6J mice [1]; 0.3 mg/kg s.c., male mice", "result": 0.6, "unit": "°C"}, {"measurement": "Body Temp Δ (°C) Mean", "setting": "C57BL/6J mice [1]; 0.3 mg/kg s.c., pooled sexes", "result": 0.2, "unit": "°C"}, {"measurement": "Body Temp Δ (°C) Mean", "setting": "C57BL/6J mice [1]; 1 mg/kg s.c., female mice", "result": -0.3, "unit": "°C"}, {"measurement": "Body Temp Δ (°C) Mean", "setting": "C57BL/6J mice [1]; 1 mg/kg s.c., male mice", "result": -0.1, "unit": "°C"}, {"measurement": "Body Temp Δ (°C) Mean", "setting": "C57BL/6J mice [1]; 1 mg/kg s.c., pooled sexes", "result": 0.4, "unit": "°C"}, {"measurement": "Body Temp Δ (°C) Mean", "setting": "C57BL/6J mice [1]; 3 mg/kg s.c., female mice", "result": -0.3, "unit": "°C"}, {"measurement": "Body Temp Δ (°C) Mean", "setting": "C57BL/6J mice [1]; 3 mg/kg s.c., male mice", "result": -0.1, "unit": "°C"}, {"measurement": "Body Temp Δ (°C) Mean", "setting": "C57BL/6J mice [1]; 3 mg/kg s.c., pooled sexes", "result": -0.2, "unit": "°C"}, {"measurement": "Body Temp Δ (°C) Mean", "setting": "C57BL/6J mice [1]; 10 mg/kg s.c., female mice", "result": -0.4, "unit": "°C"}, {"measurement": "Body Temp Δ (°C) Mean", "setting": "C57BL/6J mice [1]; 10 mg/kg s.c., male mice", "result": -0.9, "unit": "°C"}, {"measurement": "Body Temp Δ (°C) Mean", "setting": "C57BL/6J mice [1]; 10 mg/kg s.c., pooled sexes", "result": -0.6, "unit": "°C"}, {"measurement": "Body temperature vs. vehicle controls", "setting": "C57BL/6J mice [1]; 0.03-10 mg/kg s.c., both sexes", "result": "did not change body temperature"}, {"measurement": "HTR (total events) Mean", "setting": "C57BL/6J mice [2]; 0.03 mg/kg s.c., female mice", "result": 12.5, "unit": "total events"}, {"measurement": "HTR (total events) Mean", "setting": "C57BL/6J mice [2]; 0.03 mg/kg s.c., male mice", "result": 8.8, "unit": "total events"}, {"measurement": "HTR (total events) Mean", "setting": "C57BL/6J mice [2]; 0.03 mg/kg s.c., pooled sexes", "result": 10.7, "unit": "total events"}, {"measurement": "HTR (total events) Mean", "setting": "C57BL/6J mice [2]; 0.1 mg/kg s.c., female mice", "result": 19.7, "unit": "total events"}, {"measurement": "HTR (total events) Mean", "setting": "C57BL/6J mice [2]; 0.1 mg/kg s.c., male mice", "result": 22.4, "unit": "total events"}, {"measurement": "HTR (total events) Mean", "setting": "C57BL/6J mice [2]; 0.1 mg/kg s.c., pooled sexes", "result": 20.8, "unit": "total events"}, {"measurement": "HTR (total events) Mean", "setting": "C57BL/6J mice [2]; 0.3 mg/kg s.c., female mice", "result": 59.0, "unit": "total events"}, {"measurement": "HTR (total events) Mean", "setting": "C57BL/6J mice [2]; 0.3 mg/kg s.c., male mice", "result": 57.3, "unit": "total events"}, {"measurement": "HTR (total events) Mean", "setting": "C57BL/6J mice [2]; 0.3 mg/kg s.c., pooled sexes", "result": 58.2, "unit": "total events"}, {"measurement": "HTR (total events) Mean", "setting": "C57BL/6J mice [2]; 1 mg/kg s.c., female mice", "result": 91.2, "unit": "total events"}, {"measurement": "HTR (total events) Mean", "setting": "C57BL/6J mice [2]; 1 mg/kg s.c., male mice", "result": 89.7, "unit": "total events"}, {"measurement": "HTR (total events) Mean", "setting": "C57BL/6J mice [2]; 1 mg/kg s.c., pooled sexes", "result": 90.4, "unit": "total events"}, {"measurement": "HTR (total events) Mean", "setting": "C57BL/6J mice [2]; 3 mg/kg s.c., female mice", "result": 108.8, "unit": "total events"}, {"measurement": "HTR (total events) Mean", "setting": "C57BL/6J mice [2]; 3 mg/kg s.c., male mice", "result": 106.8, "unit": "total events"}, {"measurement": "HTR (total events) Mean", "setting": "C57BL/6J mice [2]; 3 mg/kg s.c., pooled sexes", "result": 107.8, "unit": "total events"}, {"measurement": "HTR (total events) Mean", "setting": "C57BL/6J mice [2]; 10 mg/kg s.c., female mice", "result": 148.7, "unit": "total events"}, {"measurement": "HTR (total events) Mean", "setting": "C57BL/6J mice [2]; 10 mg/kg s.c., male mice", "result": 103.3, "unit": "total events"}, {"measurement": "HTR (total events) Mean", "setting": "C57BL/6J mice [2]; 10 mg/kg s.c., pooled sexes", "result": 126.0, "unit": "total events"}, {"measurement": "ED50", "setting": "C57BL/6J mice [2]; female mice, ascending limb of dose-response curve, read-out: HTR ♀ ED50 (95% CI)", "result": 0.52, "unit": "mg/kg"}, {"measurement": "ED50", "setting": "C57BL/6J mice [2]; male mice, ascending limb of dose-response curve, read-out: HTR ♂ ED50 (95% CI)", "result": 0.3, "unit": "mg/kg"}, {"measurement": "ED50", "setting": "C57BL/6J mice [2]; pooled male and female mice, read-out: HTR ♂+♀ ED50 (95% CI)", "result": 0.33, "unit": "mg/kg"}, {"measurement": "Duration of HTR effect in the session", "setting": "C57BL/6J mice [2]; peak/active doses, 30 min session", "result": "lasted throughout the entire 30 min session"}, {"measurement": "Time of peak effects on HTR post drug administration", "setting": "C57BL/6J mice [2]; s.c., both sexes, 30 min session", "result": "5 to 10", "unit": "min"}, {"measurement": "HTR ♀ Emax (95% CI)", "setting": "C57BL/6J mice [2]; s.c., female mice, top of regression fit", "result": "131 (118–146) HTR events"}, {"measurement": "HTR ♂ Emax (95% CI)", "setting": "C57BL/6J mice [2]; s.c., male mice, top of regression fit", "result": "105 (93–118) HTR events"}, {"measurement": "HTR ♂+♀ Emax (95% CI)", "setting": "C57BL/6J mice [2]; s.c., pooled male and female mice", "result": "111 (101–127) HTR events"}, {"measurement": "Locomotor Activity (cm) Mean", "setting": "C57BL/6J mice [3]; 0.03 mg/kg s.c., female mice", "result": 2149, "unit": "cm"}, {"measurement": "Locomotor Activity (cm) Mean", "setting": "C57BL/6J mice [3]; 0.03 mg/kg s.c., male mice", "result": 2753, "unit": "cm"}, {"measurement": "Locomotor Activity (cm) Mean", "setting": "C57BL/6J mice [3]; 0.03 mg/kg s.c., pooled sexes", "result": 2408, "unit": "cm"}, {"measurement": "Locomotor Activity (cm) Mean", "setting": "C57BL/6J mice [3]; 0.1 mg/kg s.c., female mice", "result": 2292, "unit": "cm"}, {"measurement": "Locomotor Activity (cm) Mean", "setting": "C57BL/6J mice [3]; 0.1 mg/kg s.c., male mice", "result": 3045, "unit": "cm"}, {"measurement": "Locomotor Activity (cm) Mean", "setting": "C57BL/6J mice [3]; 0.1 mg/kg s.c., pooled sexes", "result": 2606, "unit": "cm"}, {"measurement": "Locomotor activity effect", "setting": "C57BL/6J mice [3]; 1 mg/kg s.c.", "result": "marginal increase"}, {"measurement": "Locomotor Activity (cm) Mean", "setting": "C57BL/6J mice [3]; 1 mg/kg s.c., female mice", "result": 3246.7, "unit": "cm"}, {"measurement": "Locomotor Activity (cm) Mean", "setting": "C57BL/6J mice [3]; 1 mg/kg s.c., male mice", "result": 4033.6, "unit": "cm"}, {"measurement": "Locomotor Activity (cm) Mean", "setting": "C57BL/6J mice [3]; 1 mg/kg s.c., pooled sexes", "result": 3640, "unit": "cm"}, {"measurement": "Locomotor Activity (cm) Mean", "setting": "C57BL/6J mice [3]; 3 mg/kg s.c., female mice", "result": 3192.6, "unit": "cm"}, {"measurement": "Locomotor Activity (cm) Mean", "setting": "C57BL/6J mice [3]; 3 mg/kg s.c., male mice", "result": 3289.3, "unit": "cm"}, {"measurement": "Locomotor Activity (cm) Mean", "setting": "C57BL/6J mice [3]; 3 mg/kg s.c., pooled sexes", "result": 3241, "unit": "cm"}, {"measurement": "Locomotor Activity (cm) Mean", "setting": "C57BL/6J mice [3]; 10 mg/kg s.c., female mice", "result": 2459.7, "unit": "cm"}, {"measurement": "Locomotor Activity (cm) Mean", "setting": "C57BL/6J mice [3]; 10 mg/kg s.c., male mice", "result": 2529.1, "unit": "cm"}, {"measurement": "Locomotor Activity (cm) Mean", "setting": "C57BL/6J mice [3]; 10 mg/kg s.c., pooled sexes", "result": 2492, "unit": "cm"}]}]}
